Structures can show the parent of a compound that is named as a salt.
Tested on: mongolian gerbils
Assay: gerbil social interaction model (time spent in active social interactions)
Format: in vivo
Conditions: one hour after administration
Protocol: Paroxetine hydrochloride hemihydrate (0.3 mg/kg p.o of the paroxetine measured as the free base.), 2-(S)-(4-Fluoro-2-methyl-phenyl)-piperazine-1-carboxylic acid [1-(R)-(3,5-bis-trifluoromethyl-phenyl)-ethyl]-methyl-amide methansulphonate (hereinafter compound A) (0.1 mg/kg i.p of the compound A measured as the free base) and a combination of paroxetine (0.3 mg/kg p.o. of the paroxetine measured as the free base) and compound A (0.1 mg/kg i.p. of the compound A measured as the free base) were administered independently in mongolian gerbils to assess the effect on time spent in active social interactions.
The results obtained one hour after administration, expressed as a percentage variation of the time spent in active social interactions by each animal in respect to the value obtained by treatment of control animals, are summarised in table 1.

SMILES	% variation of the time spent in active social interactions in respect to control animals (0.1 mg/kg i.p. (measured as the free base)) [%]	% variation of the time spent in active social interactions in respect to control animals (0.3 mg/kg p.o. (measured as the free base)) [%]
CS(=O)(=O)O.Cc1cc(F)ccc1[C@H]1CNCCN1C(=O)N(C)[C@H](C)c1cc(C(F)(F)F)cc(C(F)(F)F)c1 [Compound A, 2-(S)-(4-Fluoro-2-methyl-phenyl)-piperazine-1-carboxylic acid [1-(R)-(3,5-bis-trifluoromethyl-phenyl)-ethyl]-methyl-amide methansulphonate]	−8	
Fc1ccc([C@@H]2CCNC[C@H]2COc2ccc3c(c2)OCO3)cc1 [Paroxetine hydrochloride hemihydrate, (−) trans-4-(4′-fluorophenyl)3-(3′-4′-methylenedioxyphenoxymethyl)piperidine]		−2

— patent US20060241124A1, “Combinations comprising paroxetine and 2- (s) - (4-fluoro-2-methyl-phenyl) -piperazine-1-carboxylic acid [1- (r)- (3,5-bis-trifluoro-2-methyl-phenyl) -ethyl]-methyl amide for treatment of depression and/or anxiety” (priority 2003, published 2006)
